This note sets out measurements from the NIST ThermoML archive (doi:10.1021/je400471m).

± gives the expanded uncertainty stated by the source.

Data set [1] in a line: refractive index (Na D-line) (dimensionless); wn = mass fraction of the nth substance listed. The conditions noted are these: 338.15 K, 98 kPa, Liquid, Standard Abbe refractometry.
A short description of data set [2]: refractive index (Na D-line) (dimensionless). The note with it: 338.15 K; 98 kPa; Liquid; Standard Abbe refractometry.

As to `O=C(CO)[C@@H](O)[C@H](O)[C@H](O)CO` [D-fructose] + O, the refractive index stood at 1.3687 ± 0.0096 in data set [1] (w1 = 0.2189); 1.3945 ± 0.0096 in data set [1] (w1 = 0.3592); 1.4159 ± 0.0096 in data set [1] (w1 = 0.4567); 1.4339 ± 0.0096 in data set [1] (w1 = 0.5286); 1.4393 ± 0.0096 in data set [1] (w1 = 0.5759); 1.4413 ± 0.0096 in data set [1] (w1 = 0.579). For the same compound, in data set [1] (w1 = 0.5836), the refractive index came out at 1.4428 ± 0.0096.
`CCO` [ethanol] + O: the refractive index in data set [1] (w1 = 0.2) turned out to be 1.3363 ± 0.0096; in data set [1] (w1 = 0.4) it was 1.3415 ± 0.0096; in data set [1] (w1 = 0.6) it was 1.3569 ± 0.0096; in data set [1] (w1 = 0.9) it was 1.3587 ± 0.0096.
On to `O` [water], for which the refractive index in data set [2] worked out at 1.323 ± 0.0096.
